Measurements reported in PubChem BioAssay (NCI).
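Test compounds were applied to cells in 96-well plates for 48 hours at 5 doses. GI50 is the concentration that inhibits growth by half. The concentration for full growth arrest is given as TGI.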

Experiments:
Test in all cases: growth of human tumour cells (NCI), 48 h
[1] = tested on: HL-60(TB) leukemia
[2] = tested on: MOLT-4 leukemia
[3] = tested on: SNB-19 CNS
[4] = tested on: SK-OV-3 ovarian
[5] = tested on: CAKI-1 renal
[6] = tested on: OVCAR-8 ovarian
[7] = tested on: BT-549 breast
[8] = tested on: KM12 colon
[9] = tested on: 786-0 renal
[10] = tested on: HOP-92 NSCLC
[11] = tested on: EKVX NSCLC
[12] = tested on: SNB-75 CNS
[13] = tested on: OVCAR-4 ovarian
[14] = tested on: PC-3 prostate
[15] = tested on: DU-145 prostate
[16] = tested on: CCRF-CEM leukemia
[17] = tested on: K-562 leukemia
[18] = tested on: OVCAR-3 ovarian
[19] = tested on: SF-295 CNS
[20] = tested on: HCC-2998 colon
[21] = tested on: U251 CNS
[22] = tested on: HCT-15 colon
[23] = tested on: SK-MEL-5 melanoma
[24] = tested on: IGROV1 ovarian
[25] = tested on: A498 renal
[26] = tested on: SR leukemia
[27] = tested on: SW-620 colon
[28] = tested on: A549 NSCLC
[29] = tested on: MALME-3M melanoma
[30] = tested on: SF-539 CNS
[31] = tested on: UO-31 renal
[32] = tested on: UACC-62 melanoma
[33] = tested on: HOP-62 NSCLC
[34] = tested on: HCT-116 colon
[35] = tested on: HT29 colon
[36] = tested on: MDA-MB-468 breast
[37] = tested on: NCI-H522 lung
[38] = tested on: ACHN renal
[39] = tested on: LOX IMVI melanoma
[40] = tested on: SK-MEL-28 melanoma
[41] = tested on: MCF7 breast
[42] = tested on: SK-MEL-2 melanoma
[43] = tested on: NCI-H226 lung
[44] = tested on: M14 melanoma
[45] = tested on: OVCAR-5 ovarian
[46] = tested on: RPMI-8226 leukemia
[47] = tested on: NCI-H460 lung
[48] = tested on: COLO 205 colon
[49] = tested on: SF-268 CNS
[50] = tested on: UACC-257 melanoma
[51] = tested on: NCI/ADR-RES ovarian
[52] = tested on: MDA-MB-231 breast
[53] = tested on: HS 578T breast
[54] = tested on: SN12C renal
[55] = tested on: MDA-MB-435
[56] = tested on: NCI-H23 lung
[57] = tested on: RXF 393 renal
[58] = tested on: TK-10 renal

## COc1ccc2[nH]c(O)c(N=Nc3nc(-c4ccc(Br)cc4)cs3)c2c1
[1]
  GI50: 87.8 µM
  TGI: > 100 µM
[2]
  GI50: 3.33 µM
  TGI: > 100 µM
[3]
  GI50: 8.01 µM
  TGI: 52.4 µM
[4]
  GI50: 6.16 µM
  TGI: 50.3 µM
[5]
  GI50: 5.1 µM
  TGI: 32.7 µM
[6]
  GI50: 3.07 µM
  TGI: 9.52 µM
[7]
  GI50: 7.26 µM
  TGI: 36.6 µM
[8]
  GI50: 6.23 µM
  TGI: > 100 µM
[9]
  GI50: 1650 nM
  TGI: 3.22 µM
[10]
  GI50: 1960 nM
  TGI: 5.21 µM
[11]
  GI50: 3.63 µM
  TGI: 27.9 µM
[12]
  GI50: 3 µM
  TGI: 21.3 µM
[13]
  GI50: 1730 nM
  TGI: 3.23 µM
[14]
  GI50: 5.22 µM
  TGI: 60.1 µM
[15]
  GI50: 4.54 µM
  TGI: 32.6 µM
[16]
  GI50: 6.56 µM
  TGI: > 100 µM
[17]
  GI50: 4.35 µM
  TGI: > 100 µM
[18]
  GI50: 2910 nM
  TGI: 10.4 µM
[19]
  GI50: 11.3 µM
  TGI: 39.3 µM
[20]
  GI50: 4.25 µM
  TGI: > 100 µM
[21]
  GI50: 2960 nM
  TGI: 9.25 µM
[22]
  GI50: 4.43 µM
  TGI: 30.6 µM
[23]
  GI50: 4.72 µM
  TGI: 30.9 µM
[24]
  GI50: 5.41 µM
  TGI: > 100 µM
[25]
  GI50: 2380 nM
  TGI: 6.5 µM
[26]
  GI50: 4.73 µM
  TGI: > 100 µM
[27]
  GI50: 3.06 µM
  TGI: > 100 µM
[28]
  GI50: 3.07 µM
  TGI: 12.9 µM
[29]
  GI50: 1690 nM
  TGI: 3.2 µM
[30]
  GI50: 1920 nM
  TGI: 3.95 µM
[31]
  GI50: 9.13 µM
  TGI: 28.2 µM
[32]
  GI50: 2970 nM
  TGI: > 100 µM
[33]
  GI50: 6.51 µM
  TGI: 36 µM
[34]
  GI50: 2350 nM
  TGI: 5.72 µM
[35]
  GI50: 7.18 µM
  TGI: > 100 µM
[36]
  GI50: 2170 nM
  TGI: 5.81 µM
[37]
  GI50: 2500 nM
  TGI: 39 µM
[38]
  GI50: 3.18 µM
  TGI: 10.1 µM
[39]
  GI50: 3.77 µM
  TGI: 12.5 µM
[40]
  GI50: 2010 nM
  TGI: 4.19 µM
[41]
  GI50: 2980 nM
  TGI: 79.8 µM
[42]
  GI50: 2600 nM
  TGI: 8.11 µM
[43]
  GI50: 4.44 µM
  TGI: 19.5 µM
[44]
  GI50: 2810 nM
  TGI: 10.3 µM
[45]
  GI50: 5.77 µM
  TGI: 33.8 µM
[46]
  GI50: 3.62 µM
  TGI: > 100 µM
[47]
  GI50: 2480 nM
  TGI: 6.14 µM
[48]
  GI50: 5.6 µM
  TGI: > 100 µM
[49]
  GI50: 6.49 µM
  TGI: 36.6 µM
[50]
  GI50: 8.64 µM
  TGI: > 100 µM
[51]
  GI50: 2100 nM
  TGI: 4.58 µM
[52]
  GI50: 5.35 µM
  TGI: 20.7 µM
[53]
  GI50: 7.34 µM
  TGI: > 100 µM
[54]
  GI50: 3.16 µM
  TGI: 11.1 µM
[55]
  GI50: 6.64 µM
  TGI: > 100 µM
[56]
  GI50: 3.51 µM
  TGI: 14.2 µM
[57]
  GI50: 2290 nM
  TGI: 5.07 µM
[58]
  GI50: 14.7 µM
  TGI: 89.9 µM
